Assay results taken from ChEMBL document CHEMBL4513152, “CO-ADD screening of Yantai University (China) compounds”.
≈ marks a conversion by molar mass, not a printed value.

Key:
Klebsiella pneumoniae = experiment: microbe, parasite or virus in culture; conditions: ATCC 700603, 18 h, ASSAY_TEST Inhibition of Bacterial Growth, detection method Absorption (OD600), MEDIA CAMHB, plate type 384well, NBS, CORNING #3640
Description: Antibacterial activity against Klebsiella pneumoniae MDR ATCC 70063 (CO-ADD:GN_003); MIC in CAMBH media using NBS plates, by OD(600)

Candida albicans = experiment: microbe, parasite or virus in culture; conditions: ATCC 90028, ASSAY_TEST Inhibition of Fungal Growth, detection method Absorption (OD530), plate type 384well, NBS, CORNING #3640
Description: Antifungal activity against Candida albicans ATCC 90028 (CO-ADD:FG_001); MIC in YNB media using NBS plates, by OD630

HEK293 = experiment: cells; type: functional; conditions: Homo sapiens, ATCC CRL1573, HEK293; ASSAY_TEST Inhibition of Cell Viability; detection method Resazurin; Fluorescence (ex560/em590); MEDIA DMEM with 10% FBS; plate type 384well; TC; CORNING #3712; time 18 hr
Acinetobacter baumannii = experiment: microbe, parasite or virus in culture; conditions: ATCC 19606, 18 h, ASSAY_TEST Inhibition of Bacterial Growth, detection method Absorption (OD600), MEDIA CAMHB, plate type 384well, NBS, CORNING #3640
Description: Antibacterial activity against Acinetobacter baumannii ATCC 19606 (CO-ADD:GN_034); MIC in CAMBH media using NBS plates, by OD600

Escherichia coli = experiment: microbe, parasite or virus in culture; conditions: ATCC 25922, 18 h, ASSAY_TEST Inhibition of Bacterial Growth, detection method Absorption (OD600), MEDIA CAMHB, plate type 384well, NBS, CORNING #3640
Description: Antibacterial activity against Escherichia coli ATCC 25922 (CO-ADD:GN_001); MIC in CAMBH media using NBS plates, by OD(600)

Staphylococcus aureus = experiment: microbe, parasite or virus in culture; conditions: ATCC 43300, 18 h, ASSAY_TEST Inhibition of Bacterial Growth, detection method Absorption (OD600), MEDIA CAMHB, plate type 384well, NBS, CORNING #3640
Description: Antibacterial activity against Staphylococcus aureus MRSA ATCC 43300 (CO-ADD:GP_020); MIC in CAMBH media, using NBS plates, by OD(600)

Pseudomonas aeruginosa = experiment: microbe, parasite or virus in culture; conditions: ATCC 27853, 18 h, ASSAY_TEST Inhibition of Bacterial Growth, detection method Absorption (OD600), MEDIA CAMHB, plate type 384well, NBS, CORNING #3640
Description: Antibacterial activity against Pseudomonas aeruginosa ATCC 27853 (CO-ADD:GN_042); MIC in CAMBH media using NBS plates, by OD(600)

Description for Cryptococcus neoformans: Antifungal activity against Cryptococcus neoformans H99 ATCC 208821 (CO-ADD:FG_002); MIC in YNB media using NBS plates, by Resazurin OD(600-570)

| Compound | MIC (Klebsiella pneumoniae) [µg/mL] | MIC (Candida albicans) [µg/mL] | MIC (Acinetobacter baumannii) [µg/mL] | MIC (Escherichia coli) [µg/mL] | MIC (Staphylococcus aureus) [µg/mL] | MIC (Pseudomonas aeruginosa) [µg/mL] | MIC (Cryptococcus neoformans) [µg/mL] | CC50 (HEK293) [µg/mL] |
| --- | --- | --- | --- | --- | --- | --- | --- | --- |
| CC(=O)O[C@H]1C[C@@]2(C)C(C[C@@H](O)C3[C@@]4(C)CC[C@@H](OC(=O)CCCCCN)[C@@H](C)C4CC[C@@]32C)/C1=C(\CCC=C(C)C)C(=O)OCc1ccccc1 (some centres undefined) | > 32 | 32 (≈ 44.4 µM) | > 32 | > 32 | 16 (≈ 22.2 µM) | > 32 | 16 (≈ 22.2 µM) | 8.27 (≈ 11.5 µM) |
| CC(=O)O[C@H]1C[C@@]2(C)C(C[C@@H](O)C3[C@@]4(C)CC[C@@H](OC(=O)C(N)Cc5ccccc5)[C@@H](C)C4CC[C@@]32C)/C1=C(\CCC=C(C)C)C(=O)OCc1ccccc1 (some centres undefined) | > 32 | > 32 | > 32 | > 32 | > 32 | > 32 | > 32 | > 32 |
| CC(=O)O[C@H]1C[C@@]2(C)C(C[C@@H](O)C3[C@@]4(C)CC[C@@H](OC(=O)CN)[C@@H](C)C4CC[C@@]32C)/C1=C(\CCC=C(C)C)C(=O)OCc1ccccc1 (some centres undefined) | > 32 | 32 (≈ 48.2 µM) | > 32 | > 32 | > 32 | > 32 | 16 (≈ 24.1 µM) | 10.8 (≈ 16.3 µM) |
| CC(=O)O[C@H]1C[C@@]2(C)C(C[C@@H](O)C3[C@@]4(C)CC[C@@H](O)[C@@H](C)C4CC[C@@]32C)/C1=C(\CCC=C(C)C)C(=O)On1nnc2ccc(Cl)cc21 (some centres undefined) | > 32 | > 32 | > 32 | > 32 | ≤ 0.25 | > 32 | > 32 | > 32 |
| CC(=O)O[C@H]1C[C@@]2(C)C(C[C@@H](O)C3[C@@]4(C)CC[C@@H](OC(=O)c5ccccc5C(=O)O)[C@@H](C)C4CC[C@@]32C)/C1=C(\CCC=C(C)C)C(=O)OCc1ccccc1 (some centres undefined) | > 32 | > 32 | > 32 | > 32 | 32 (≈ 42.4 µM) | > 32 | > 32 | 20.6 (≈ 27.3 µM) |

The next lines start with results.

| MIC (Klebsiella pneumoniae) [µg/mL] | MIC (Candida albicans) [µg/mL] | MIC (Acinetobacter baumannii) [µg/mL] | MIC (Escherichia coli) [µg/mL] | MIC (Staphylococcus aureus) [µg/mL] | MIC (Pseudomonas aeruginosa) [µg/mL] | MIC (Cryptococcus neoformans) [µg/mL] | Compound | CC50 (HEK293) [µg/mL] |
| --- | --- | --- | --- | --- | --- | --- | --- | --- |
| > 32 | > 32 | > 32 | > 32 | 32 (≈ 44.3 µM) | > 32 | > 32 | CC(=O)O[C@H]1C[C@@]2(C)C(C[C@@H](O)C3[C@@]4(C)CC[C@@H](O)[C@@H](C)C4CC[C@@]32C)/C1=C(\CCC=C(C)C)C(=O)O/C(=N/C1CCCCC1)NC1CCCCC1 (some centres undefined) | 19.9 (≈ 27.5 µM) |
| > 32 | > 32 | > 32 | > 32 | 8 (≈ 11.9 µM) | > 32 | > 32 | CCN/C(=N\CCCN(C)C)OC(=O)/C(CCC=C(C)C)=C1/C2C[C@@H](O)C3[C@@]4(C)CC[C@@H](O)[C@@H](C)C4CC[C@]3(C)[C@@]2(C)C[C@@H]1OC(C)=O (some centres undefined) | 15.4 (≈ 22.9 µM) |
| > 32 | > 32 | > 32 | > 32 | ≤ 0.25 | > 32 | > 32 | CC(=O)O[C@H]1C[C@@]2(C)C(C[C@@H](O)C3[C@@]4(C)CC[C@@H](O)[C@@H](C)C4CC[C@@]32C)/C1=C(\CCC=C(C)C)C(=O)O (some centres undefined) | > 32 |
